Results reported in article PMC4666608, “Metabolic Profiling of Chicken Embryos Exposed to Perfluorooctanoic Acid (PFOA) and Agonists to Peroxisome Proliferator-Activated Receptors” (PLoS ONE, 2015).
pEC50: −log10 of the molar value. Values joined by “and” are separate entries in the source; they are usually repeats but may differ in a detail not shown here. Identical values can stand only once. Like-named read-outs stand apart in the source and are kept apart here.

Experiments:
[1] = tested on: human PPARγ; set-up: method as in PMID 16038868; settings: reporter cell assay; read-out: EC50, activation of transcription through human PPARγ; cited from earlier work
[2] = Determination of PFOA in liver (UPLC-MS/MS); type: in vivo, Gallus gallus domesticus; settings: for concentration at 5 days: chicken (Gallus gallus domesticus) embryo, other: air sac injection into the egg, 1000 µg/egg; for concentration at 5 days / concentration at 5 d: liver; for concentration at 5 d: chicken, other: air sac injection in ovo
Experimental: (§1) Controls were injected with 20 μL vehicle only (DMSO).
(§2) The concentration of PFOA was analyzed in liver and blood plasma from control embryos and embryos exposed to PFOA (50, 250 and 1000 μg/egg). Five individual livers from each PFOA-treated group were analyzed. Very low PFOA concentrations were anticipated in the controls and therefore the amount of tissue was increased by pooling 2–3 livers, and five such pools were analyzed. Four plasma samples (50 μL) were analyzed from each group except the group exposed to 1000 μg PFOA/egg for which three samples were analyzed. Extraction blanks were included for each batch. The analyzed amount of liver homogenate was 100 mg for controls and 50 mg for PFOA-exposed embryos. Livers were homogenized using the bead mill Bullet Blender® Storm 24 (Next Advance, Inc. New York, USA) with stainless steel beads at speed 8 for 3 min. Plasma and liver samples were spiked with 50 ng of internal standard (^13C4-PFOA, Wellington, Guelph, Canada). Five milliliters of acetonitrile (Labscan, Gliwice, Poland) was added to the samples followed by vortex mixing, sonication (20 min), and centrifugation (10 000 g, 5 min). Extraction was performed twice for livers and once for plasma. One mL of supernatant from the extracts was transferred to a tube prepared with 50 mg ENVI-Carb™ 20/400 mesh (Supelco, Bellefonte, PA, USA) and 100 μL glacial acetic acid (Sigma-Aldrich). The carbon suspension was vortex mixed and then filtrated using a 0.2-μm GHP filter (Pall, East Hills, NY, USA). Filtrate (0.4 mL) was mixed with 2 ng of the recovery standard (^13C8-PFOA, Wellington Laboratories) and 0.6 mL 2 mM ammonium acetate was added. Analysis was performed using an Acquity UPLC coupled to a Xevo-TQS MS/MS (Waters Corporation, Milford, MA, USA) as described previously. The recovery standard ^13C8-PFOA was added before injection to assess the recoveries of the internal standard ^13C4-PFOA. The recoveries ranged between 75 and 94% (average 82%) for plasma and between 64 and 119% (average 84%) for liver.

[3] = for Body weight, Mean ± SD / Liver-somatic index, Mean ± SD: E12; for Body weight / Liver weight / Liver-somatic index: group mean
Experimental: The experimental procedures in this study were approved by the Uppsala Ethical Committee for Research on Animals (Permit number C 211/12). Fertilized chicken eggs (Gallus gallus domesticus) were obtained from a local breeder (Ova Production AB, Vittinge, Sweden). The egg weights were 60 ± 4 g (mean and standard deviation). The eggs were incubated at 37.5°C and 60% relative humidity with automatic turning every six hours. The day the eggs were placed in the incubator was defined as embryonic day zero (E0). Chicken embryos were exposed to test substances by air sac injection in eggs incubated for seven days (E7). At this stage, the extraembryonic allantoic blood vessel network has grown to cover the inner shell membrane beneath the air sac and the injected substance will come in direct contact with the vascular network. The exposures were performed as follows: Unfertilized eggs and poorly developing embryos were recognized by candling and were sorted out. Eggs with embryos of normal size were collected and randomly distributed into the different treatment groups. On E7, the blunt end of each egg was wiped with alcohol and a small hole was drilled through the shell above the air sac. The dissolved test substance (20 μl) was deposited onto the inner shell membrane in the air sac and the hole was sealed with melted paraffin wax. Following injection, eggs were held horizontally and rotated for a few seconds to allow dispersal over the inner shell membrane in the air sac. Each egg was marked with a number specifying the treatment group and was placed at a random location in the incubator.
The doses were 150 μg/egg (approximately 2.5 mg/kg egg) for GW7647 and rosiglitazone and 50, 250 or 1000 μg/egg for PFOA (approximately 0.83, 4.2 and 18 mg/kg egg, respectively). Controls were injected with 20 μL vehicle only (DMSO). Due to the large number of embryos required, the experiment was divided into four replicate experiments (replicate A-D) performed the same way but on separate occasions. The number of exposed embryos was 10–15 for each treatment group and replicate.
Embryos and livers were weighed and the liver-somatic index was calculated (100 x liver weight/body weight). Livers were collected from the control group and from each of the PFOA groups for determination of PFOA concentrations. These livers were stored at -20°C and later extracted and analyzed as described below. Four females and four males from each PFOA group (except the 1000 μg/egg group) and from the control group were also randomly chosen for evaluation of signs of overt liver toxicity using liver histology (method described in S1 Methods).
The software GraphPad Prism version 5 (GraphPad Software Inc, San Diego, CA, USA) was used for univariate and bivariate statistics. Mortality rates were analyzed with Fisher’s exact test. Body weight, liver-somatic index and concentrations of plasma lipids were initially analyzed using two-way analysis of variance (two-way ANOVA) with treatment and sex (or treatment and replicate) as independent variables. […] Metabolites were selected by multivariate methods as described below and differences in concentrations (treatment groups vs control group as well as females vs males) were then tested using Student’s t-test. The results of these t-tests on metabolite concentrations were used in an exploratory way to find candidate metabolites and for that reason the p-values were not corrected for multiple comparisons.

[4] = tested on: chicken embryos; settings: injection before start of incubation; cited from earlier work
[5] = Determination of PFOA in blood plasma (UPLC-MS/MS); type: in vivo, Gallus gallus domesticus; settings: E12; for concentration at 5 d: chicken, plasma, other: air sac injection in ovo
Experimental: as §1
Plasma was collected and stored at -70°C.
as §2

[6] = PFOA 1000 μg/egg, five embryos from replicate A
[7] = group PFOA 1000 (1000 µg/egg), five embryos, replicate A only

Compound: CN(CCOc1ccc(CC2SC(=O)NC2=O)cc1)c1ccccn1 (stereo not drawn) [Rosiglitazone, rosiglitazone, reference compound]
- pEC50 [1]: 7.74

Compound: O=C(O)C(F)(F)C(F)(F)C(F)(F)C(F)(F)C(F)(F)C(F)(F)C(F)(F)F [PFOA, perfluorooctanoic acid]
- Concentration in liver ([2]; PFOA 50 µg/egg, chicken embryo liver, individual embryos): 1067 ng/g and 1343 ng/g and 1269 ng/g and 1059 ng/g
- Concentration in liver ([2]; PFOA 250 µg/egg, chicken embryo liver, individual embryos): 3843 ng/g and 2549 ng/g and 3327 ng/g and 3144 ng/g
- Concentration in liver ([2]; PFOA 1000 µg/egg, chicken embryo liver, individual embryos): 11372 ng/g and 14202 ng/g and 9187 ng/g and 10517 ng/g
- concentration at 5 days ([2]; PFOA 1000 µg/egg, chicken embryo liver, group mean (n=5), read-out: Concentration in liver, Mean): 10800 ng/g
- concentration at 5 days ([2]; PFOA 1000 µg/egg, chicken embryo liver, individual embryos, read-out: Concentration in liver): 8570 ng/g
- concentration at 5 d ([2]; 50 μg/egg, E12, 50 μg PFOA/egg on E7, read-out: Mean PFOA concentration in liver): 1100 ng/g
- concentration at 5 d ([2]; 50 µg/egg, PFOA 50 µg/egg, chicken embryo liver, group mean (n=5), read-out: Concentration in liver, Mean): 1180 ng/g
- concentration at 5 d ([2]; 50 µg/egg, PFOA 50 µg/egg, chicken embryo liver, individual embryos, read-out: Concentration in liver): 1170 ng/g
- concentration at 5 d ([2]; 250 μg/egg, E12, 250 μg PFOA/egg on E7, read-out: Mean PFOA concentration in liver): 3600 ng/g
- concentration at 5 d ([2]; 250 µg/egg, PFOA 250 µg/egg, chicken embryo liver, group mean (n=5), read-out: Concentration in liver, Mean): 3580 ng/g
- concentration at 5 d ([2]; 250 µg/egg, PFOA 250 µg/egg, chicken embryo liver, individual embryos, read-out: Concentration in liver): 5060 ng/g
- concentration at 5 d ([2]; 1000 μg/egg, E12, 1000 μg PFOA/egg on E7, read-out: Mean PFOA concentration in liver): 11000 ng/g
- Body weight, Mean ± SD ([3]; PFOA 50 μg/egg): 4.2 ± 0.5 g
- Liver-somatic index, Mean ± SD ([3]; PFOA 50 μg/egg): 1.7 ± 0.1%
- Body weight, Mean ± SD ([3]; PFOA 250 μg/egg): 4.3 ± 0.4 g
- Liver-somatic index, Mean ± SD ([3]; PFOA 250 μg/egg): 1.7 ± 0.2%
- Body weight, Mean ± SD [3, 6]: 4.6 ± 0.4 g
- Liver-somatic index, Mean ± SD [3, 6]: 2.0 ± 0.2%
- Body weight ([3]; group PFOA 50 (µg/egg)): 4.2 g
- Liver weight ([3]; group PFOA 50 (µg/egg)): 70.6 mg
- Liver-somatic index ([3]; group PFOA 50 (µg/egg)): 1.7%
- Body weight ([3]; group PFOA 250 (µg/egg)): 4.3 g
- Liver weight ([3]; group PFOA 250 (µg/egg)): 72.7 mg
- Liver-somatic index ([3]; group PFOA 250 (µg/egg)): 1.7%
- Body weight [3, 7]: 4.6 g
- Liver weight [3, 7]: 91.5 mg
- Liver-somatic index [3, 7]: 2.0%
- Dose at which increased mortality was reported [4]: 5 mg/kg egg
- Doses with lack of effect on hatching success or mortality [4]: up to 10 mg/kg egg
- Lowest observed effect level, increased embryo mortality [4]: 2 mg/kg egg
- Concentration in plasma, individual embryo ([5]; PFOA 50 µg/egg, female embryos): 2453 ng/mL and 2350 ng/mL
- Concentration in plasma, individual embryo ([5]; PFOA 50 µg/egg, male embryos): 1759 ng/mL
- Concentration in plasma, individual embryo ([5]; PFOA 250 µg/egg, female embryos): 8562 ng/mL
- Concentration in plasma, individual embryo ([5]; PFOA 250 µg/egg, male embryos): 5531 ng/mL and 5643 ng/mL
- Concentration in plasma, individual embryo ([5]; PFOA 1000 µg/egg): 17963 ng/mL and 18228 ng/mL
- concentration at 5 d ([5]; 50 μg/egg, 50 μg PFOA/egg on E7, read-out: Mean PFOA concentration in plasma): 2000 ng/mL
- concentration at 5 d ([5]; 50 µg/egg, PFOA 50 µg/egg, read-out: Concentration in plasma, Mean): 2000 ng/mL
- concentration at 5 d ([5]; 50 µg/egg, PFOA 50 µg/egg, read-out: Concentration in plasma, individual embryo): 1440 ng/mL
- concentration at 5 d ([5]; 250 μg/egg, 250 μg PFOA/egg on E7, read-out: Mean PFOA concentration in plasma): 6300 ng/mL
- concentration at 5 d ([5]; 250 µg/egg, PFOA 250 µg/egg, read-out: Concentration in plasma, Mean): 6300 ng/mL
- concentration at 5 d ([5]; 250 µg/egg, PFOA 250 µg/egg, read-out: Concentration in plasma, individual embryo): 5480 ng/mL
- concentration at 5 d ([5]; 1000 μg/egg, 1000 μg PFOA/egg on E7, read-out: Mean PFOA concentration in plasma): 18000 ng/mL
- concentration at 5 d ([5]; 1000 µg/egg, PFOA 1000 µg/egg, read-out: Concentration in plasma, Mean): 17600 ng/mL
- concentration at 5 d ([5]; 1000 µg/egg, PFOA 1000 µg/egg, read-out: Concentration in plasma, individual embryo): 16700 ng/mL
